The assay is described as follows: Functional Dkk1-LRP5-TCF-Luciferase Assay in U2OS Cells (table columns: A=MAX FOLD Induction/DMSO CONTROL; B=fold induction @ 2.0 uM; C=fold induction @ 20.0 uM). The note with it: Homo sapiens, U2OS; for fold induction at 2 µM: 2.0 uM compound; for fold induction at 20 µM: 20.0 uM compound. The assay is classed as cell-based, Human. A digest of the protocol:
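U2OS cells co-transfected with 16×TCF-TK-firefly luciferase, TK-Renilla control, Wnt3a and Dkk1, then frozen; thawed cells (~5,000/well, ~5% FBS, phenol red-free RPMI) incubated ~20 h at 37° C. with compound (0.25% DMSO). Firefly luminescence (Bright-Glo) normalized to DMSO mean as fold induction.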

Regarding `FC(F)(F)Oc1ccccc1-c1nc2c(-c3ccc4ccccc4c3)ccnc2n1C1CCNCC1` [7-(2-naphthyl)-3-piperidin-4-yl-2-[2-(trifluoromethoxy)phenyl]-3H-imidazo[4,5-b]pyridine], the fold induction at 2 µM turned out to be 1.88.

Regarding `FC(F)(F)c1ccccc1-c1nc2c(-c3ccc4ccccc4c3)ccnc2n1C1CCNCC1` [7-(2-naphthyl)-3-piperidin-4-yl-2-[2-(trifluoromethyl)phenyl]-3H-imidazo[4,5-b]pyridine], the fold induction at 2 µM was 1.72.

Turning to `FC(F)(F)Oc1cccc(-c2nc3c(-c4ccc5ccccc5c4)ccnc3n2C2CCNCC2)c1` [7-(2-naphthyl)-3-piperidin-4-yl-2-[3-(trifluoromethoxy)phenyl]-3H-imidazo[4,5-b]pyridine], the fold induction at 2 µM came out at 1.52.

On to `FC(F)(F)c1cccc(-c2nc3c(-c4ccc5ccccc5c4)ccnc3n2C2CCNCC2)c1` [7-(2-naphthyl)-3-piperidin-4-yl-2-[3-(trifluoromethyl)phenyl]-3H-imidazo[4,5-b]pyridine], for which the fold induction at 2 µM is 1.54.

Turning to `FC(F)(F)Oc1ccc(-c2nc3c(-c4ccc5ccccc5c4)ccnc3n2C2CCNCC2)cc1` [7-(2-naphthyl)-3-piperidin-4-yl-2-[4-(trifluoromethoxy)phenyl]-3H-imidazo[4,5-b]pyridine], the fold induction at 2 µM is 1.51.

For `FC(F)(F)c1ccc(-c2nc3c(-c4ccc5ccccc5c4)ccnc3n2C2CCNCC2)cc1` [7-(2-naphthyl)-3-piperidin-4-yl-2-[4-(trifluoromethyl)phenyl]-3H-imidazo[4,5-b]pyridine], the fold induction at 2 µM stood at 1.28.

Regarding `CCCc1nc2c(-c3ccc4ccccc4c3)ccnc2n1C1CCNCC1` [7-(2-naphthyl)-3-piperidin-4-yl-2-propyl-3H-imidazo[4,5-b]pyridine], the fold induction at 2 µM is 1.93.

With `c1ccc(-c2nc3c(-c4ccc5ccccc5c4)ccnc3n2C2CCNCC2)nc1` [7-(2-naphthyl)-3-piperidin-4-yl-2-pyridin-2-yl-3H-imidazo[4,5-b]pyridine], the fold induction at 2 µM came out at 1.12 and the fold induction at 20 µM is 0.02.

With `c1cncc(-c2nc3c(-c4ccc5ccccc5c4)ccnc3n2C2CCNCC2)c1` [7-(2-naphthyl)-3-piperidin-4-yl-2-pyridin-3-yl-3H-imidazo[4,5-b]pyridine], the fold induction at 2 µM was found to be 1.21.

With `FC(F)(F)c1cccc(Oc2cccc(-c3nc4c(-c5ccc6ccccc6c5)ccnc4n3C3CCNCC3)c2)c1` [7-(2-naphthyl)-3-piperidin-4-yl-2-{3-[3-(trifluoromethyl)phenoxy]phenyl}-3H-imidazo[4,5-b]pyridine], the fold induction at 2 µM turned out to be 1.29.

As for `c1ccc2cc(-c3cnc4c(c3)nc(-c3cccc5cccnc35)n4C3CCNCC3)ccc2c1` [8-[6-(2-naphthyl)-3-piperidin-4-yl-3H-imidazo[4,5-b]pyridin-2-yl]quinoline], the fold induction at 2 µM amounted to 1.61.

For `c1ccc2cc(-c3ccnc4c3nc(-c3cccc5cccnc35)n4C3CCNCC3)ccc2c1` [8-[7-(2-naphthyl)-3-piperidin-4-yl-3H-imidazo[4,5-b]pyridin-2-yl]quinoline], the fold induction at 20 µM was found to be 1.01.

For `CN(C)C(=O)N1CCC(n2c(=O)n(C)c3c(-c4ccc5ccccc5c4)ccnc32)CC1` [N,N-dimethyl-4-[1-methyl-7-(2-naphthyl)-2-oxo-1,2-dihydro-3H-imidazo[4,5-b]pyridin-3-yl]piperidine-1-carboxamide], the fold induction at 2 µM is 1.19 and the fold induction at 20 µM is 0.35.

Turning to `CN(C)S(=O)(=O)N1CCC(n2cnc3c(-c4ccc5ccccc5c4)ccnc32)CC1` [N,N-dimethyl-4-[7-(2-naphthyl)-3H-imidazo[4,5-b]pyridin-3-yl]piperidine-1-sulfonamide], the fold induction at 2 µM was determined as 1.19 and the fold induction at 20 µM worked out at 1.46.

On to `O=C(NC1CCCCC1)N1CCC(n2cnc3c(-c4ccc5ccccc5c4)ccnc32)CC1` [N-cyclohexyl-4-[7-(2-naphthyl)-3H-imidazo[4,5-b]pyridin-3-yl]piperidine-1-carboxamide], for which the fold induction at 2 µM came to 0.97 and the fold induction at 20 µM was 0.03.

Source of the values: US20090069319A1, “IMIDAZOPYRIDINE ANALOGS AND THEIR USE AS AGONISTS OF THE WNT-BETA-CATENIN CELLULAR MESSAGING SYSTEM” (Wyeth, priority 2007, published 2009).
